Results published in ChEMBL document CHEMBL5058649, “Data for DCP probe BAY 1816032” (2022).

Tests used:
[1] = target: T1, Mitotic checkpoint serine/threonine-protein kinase BUB1 (Homo sapiens, UniProt O43683); test: BUB1 biochemical assay (low ATP)
[2] = target: 5-hydroxytryptamine receptor 1B (Homo sapiens) (UniProt P28222); conditions: Compound concentration 10.0 uM
[3] = target: Alpha-2C adrenergic receptor (Homo sapiens) (UniProt P18825); conditions: Compound concentration 10.0 uM
[4] = target: Alpha-1D adrenergic receptor (Homo sapiens) (UniProt P25100); conditions: Compound concentration 10.0 uM
[5] = target: Kappa-type opioid receptor (Homo sapiens) (UniProt P41145); conditions: Compound concentration 10.0 uM
[6] = target: 5-hydroxytryptamine receptor 1A (Homo sapiens) (UniProt P08908); conditions: Compound concentration 10.0 uM
[7] = target: 5-hydroxytryptamine receptor 5A (Homo sapiens) (UniProt P47898); conditions: Compound concentration 10.0 uM
[8] = target: Histamine H1 receptor (Homo sapiens) (UniProt P35367); conditions: Compound concentration 10.0 uM
[9] = target: Delta-type opioid receptor (Homo sapiens) (UniProt P41143); conditions: Compound concentration 10.0 uM
[10] = target: Histamine H2 receptor (Homo sapiens) (UniProt P25021); conditions: Compound concentration 10.0 uM
[11] = target: T2, Sodium-dependent dopamine transporter (Homo sapiens, UniProt Q01959); test: GPCRScan assay: inhibition of DAT; set-up: radioligand conc. used [nm] 3.6 – 16.0, parental cells stable HEK
[12] = target: Beta-3 adrenergic receptor (Homo sapiens) (UniProt P13945); conditions: Compound concentration 10.0 uM
[13] = target: 5-hydroxytryptamine receptor 3A (Homo sapiens) (UniProt P46098); conditions: Compound concentration 10.0 uM
[14] = target: 5-hydroxytryptamine receptor 2B (Homo sapiens) (UniProt P41595); conditions: Compound concentration 10.0 uM
[15] = target: Mu-type opioid receptor (Homo sapiens) (UniProt P35372); conditions: Compound concentration 10.0 uM
[16] = target: D(1B) dopamine receptor (Homo sapiens) (UniProt P21918); conditions: Compound concentration 10.0 uM
[17] = target: Beta-1 adrenergic receptor (Homo sapiens) (UniProt P08588); conditions: Compound concentration 10.0 uM
[18] = target: T3, Sodium-dependent noradrenaline transporter (Homo sapiens, UniProt P23975); test: GPCRScan assay: inhibition of NET; set-up: radioligand conc. used [nm] 1.3 – 5.0, parental cells stable HEK
[19] = target: 5-hydroxytryptamine receptor 2A (Homo sapiens) (UniProt P28223); conditions: Compound concentration 10.0 uM
[20] = target: T4, Sigma non-opioid intracellular receptor 1 (Homo sapiens, UniProt Q99720); conditions: Compound concentration 10.0 uM
[21] = target: Histamine H4 receptor (Homo sapiens) (UniProt Q9H3N8); conditions: Compound concentration 10.0 uM
[22] = target: T5, 5-hydroxytryptamine receptor 1D (Homo sapiens, UniProt P28221); conditions: Compound concentration 10.0 uM
[23] = target: T1, Mitotic checkpoint serine/threonine-protein kinase BUB1; test: BUB1 biochemical assay (high ATP)
[24] = target: T6, Sigma intracellular receptor 2 (Homo sapiens, UniProt Q5BJF2); test: GPCRScan assay: inhibition of Sigma 2; set-up: radioligand conc. used [nm] 5.0, parental cells HEKT
[25] = target: Alpha-1B adrenergic receptor (Homo sapiens) (UniProt P35368); conditions: Compound concentration 10.0 uM
[26] = target: T7, Alpha-2A adrenergic receptor (Homo sapiens) (UniProt P08913); conditions: Compound concentration 10.0 uM
T7 sequence (whole entry): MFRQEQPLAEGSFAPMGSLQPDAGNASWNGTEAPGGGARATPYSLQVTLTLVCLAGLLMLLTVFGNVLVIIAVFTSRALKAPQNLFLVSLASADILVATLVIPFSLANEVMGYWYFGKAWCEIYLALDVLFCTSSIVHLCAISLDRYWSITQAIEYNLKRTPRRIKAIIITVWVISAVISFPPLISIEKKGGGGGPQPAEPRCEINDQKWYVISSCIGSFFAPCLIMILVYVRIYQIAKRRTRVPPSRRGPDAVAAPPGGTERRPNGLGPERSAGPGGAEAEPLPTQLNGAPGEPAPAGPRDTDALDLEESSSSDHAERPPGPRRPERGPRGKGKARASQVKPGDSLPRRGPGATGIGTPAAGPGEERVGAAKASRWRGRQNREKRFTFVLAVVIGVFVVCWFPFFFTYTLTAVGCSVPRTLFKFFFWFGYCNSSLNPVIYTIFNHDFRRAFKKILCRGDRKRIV

[27] = target: D(3) dopamine receptor (Homo sapiens) (UniProt P35462); conditions: Compound concentration 10.0 uM
[28] = target: Muscarinic acetylcholine receptor M4 (Homo sapiens) (UniProt P08173); conditions: Compound concentration 10.0 uM
[29] = target: 5-hydroxytryptamine receptor 7 (Homo sapiens, UniProt P34969); conditions: Compound concentration 10.0 uM
[30] = target: T2, Sodium-dependent dopamine transporter; conditions: Compound concentration 10.0 uM
[31] = target: Sodium-dependent serotonin transporter (Homo sapiens) (UniProt P31645); conditions: Compound concentration 10.0 uM
[32] = target: 5-hydroxytryptamine receptor 6 (Homo sapiens, UniProt P50406); test: GPCRScan assay: inhibition of 5-HT6; set-up: radioligand conc. used [nm] 2.0 – 4.0, parental cells stable HEK
[33] = target: T5, 5-hydroxytryptamine receptor 1D; test: GPCRScan assay: inhibition of 5-HT1D; set-up: radioligand conc. used [nm] 1.0 – 2.0, parental cells HEKT
[34] = target: T6, Sigma intracellular receptor 2; conditions: Compound concentration 10.0 uM
[35] = target: D(1A) dopamine receptor (Homo sapiens) (UniProt P21728); conditions: Compound concentration 10.0 uM
[36] = target: T3, Sodium-dependent noradrenaline transporter; conditions: Compound concentration 10.0 uM
[37] = target: 5-hydroxytryptamine receptor 1E (Homo sapiens) (UniProt P28566); conditions: Compound concentration 10.0 uM
[38] = species on record: Rattus norvegicus; conditions: Compound concentration 10.0 uM
[39] = target: D(2) dopamine receptor (Homo sapiens) (UniProt P14416); conditions: Compound concentration 10.0 uM
[40] = target: T4, Sigma non-opioid intracellular receptor 1; test: GPCRScan assay: inhibition of Sigma 1; set-up: radioligand conc. used [nm] 4.0 – 5.0, parental cells HEKT
[41] = target: Alpha-2B adrenergic receptor (Homo sapiens) (UniProt P18089); conditions: Compound concentration 10.0 uM
[42] = target: D(4) dopamine receptor (Homo sapiens) (UniProt P21917); conditions: Compound concentration 10.0 uM
[43] = target: Alpha-1A adrenergic receptor (Homo sapiens) (UniProt P35348); conditions: Compound concentration 10.0 uM

T2 sequence (Q01959 whole entry): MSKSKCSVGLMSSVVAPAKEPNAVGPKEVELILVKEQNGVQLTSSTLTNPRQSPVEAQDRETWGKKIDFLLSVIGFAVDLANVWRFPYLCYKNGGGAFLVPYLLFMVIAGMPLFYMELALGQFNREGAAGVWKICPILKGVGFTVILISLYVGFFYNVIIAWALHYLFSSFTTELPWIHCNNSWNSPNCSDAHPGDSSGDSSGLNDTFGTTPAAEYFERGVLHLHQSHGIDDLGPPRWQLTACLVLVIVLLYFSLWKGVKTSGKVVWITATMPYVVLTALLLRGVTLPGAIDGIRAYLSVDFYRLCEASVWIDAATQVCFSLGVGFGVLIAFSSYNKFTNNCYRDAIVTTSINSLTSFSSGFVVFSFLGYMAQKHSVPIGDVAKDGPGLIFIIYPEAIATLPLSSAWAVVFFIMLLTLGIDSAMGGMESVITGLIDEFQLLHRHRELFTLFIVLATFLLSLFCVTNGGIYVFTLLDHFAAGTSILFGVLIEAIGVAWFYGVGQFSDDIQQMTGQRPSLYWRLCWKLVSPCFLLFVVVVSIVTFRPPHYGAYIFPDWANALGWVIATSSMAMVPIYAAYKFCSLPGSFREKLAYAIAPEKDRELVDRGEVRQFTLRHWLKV
T5 sequence (P28221 whole entry): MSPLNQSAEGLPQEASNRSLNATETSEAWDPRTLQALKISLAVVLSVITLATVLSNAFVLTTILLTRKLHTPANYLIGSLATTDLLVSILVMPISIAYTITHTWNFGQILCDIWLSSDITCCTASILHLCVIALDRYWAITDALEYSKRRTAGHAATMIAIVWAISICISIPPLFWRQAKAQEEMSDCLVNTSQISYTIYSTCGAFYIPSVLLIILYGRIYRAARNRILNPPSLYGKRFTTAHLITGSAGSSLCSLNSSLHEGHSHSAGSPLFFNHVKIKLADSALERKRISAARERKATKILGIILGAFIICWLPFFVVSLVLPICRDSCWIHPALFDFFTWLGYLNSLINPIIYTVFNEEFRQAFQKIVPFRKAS
Sequence of 5-hydroxytryptamine receptor 6 (P50406 whole entry): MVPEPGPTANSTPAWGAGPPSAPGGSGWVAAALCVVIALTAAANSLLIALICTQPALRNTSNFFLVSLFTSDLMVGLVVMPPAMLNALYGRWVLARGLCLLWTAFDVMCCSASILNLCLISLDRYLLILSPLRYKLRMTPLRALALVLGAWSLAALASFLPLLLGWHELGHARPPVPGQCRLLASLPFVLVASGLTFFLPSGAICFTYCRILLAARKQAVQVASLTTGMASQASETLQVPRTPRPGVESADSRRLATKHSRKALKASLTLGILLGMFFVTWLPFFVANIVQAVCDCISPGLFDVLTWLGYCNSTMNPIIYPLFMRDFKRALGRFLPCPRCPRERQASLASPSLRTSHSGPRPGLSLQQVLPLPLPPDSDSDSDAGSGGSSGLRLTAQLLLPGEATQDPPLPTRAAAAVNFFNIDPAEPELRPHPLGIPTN
T3 sequence (P23975 whole entry): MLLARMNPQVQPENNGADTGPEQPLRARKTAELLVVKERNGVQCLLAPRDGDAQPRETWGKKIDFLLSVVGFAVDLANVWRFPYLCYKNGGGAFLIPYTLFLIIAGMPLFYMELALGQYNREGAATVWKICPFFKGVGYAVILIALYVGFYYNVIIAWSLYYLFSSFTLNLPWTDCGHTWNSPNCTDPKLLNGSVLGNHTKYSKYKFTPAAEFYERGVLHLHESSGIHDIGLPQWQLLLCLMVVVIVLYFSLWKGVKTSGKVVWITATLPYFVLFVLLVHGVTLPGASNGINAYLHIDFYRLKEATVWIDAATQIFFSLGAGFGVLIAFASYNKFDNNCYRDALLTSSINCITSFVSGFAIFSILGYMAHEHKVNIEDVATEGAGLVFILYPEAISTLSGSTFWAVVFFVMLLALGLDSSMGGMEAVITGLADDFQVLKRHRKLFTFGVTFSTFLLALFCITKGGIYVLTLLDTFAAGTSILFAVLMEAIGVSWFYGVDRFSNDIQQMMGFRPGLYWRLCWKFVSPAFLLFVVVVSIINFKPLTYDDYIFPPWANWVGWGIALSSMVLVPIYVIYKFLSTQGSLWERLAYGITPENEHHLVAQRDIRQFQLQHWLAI
T1 sequence (O43683 whole entry): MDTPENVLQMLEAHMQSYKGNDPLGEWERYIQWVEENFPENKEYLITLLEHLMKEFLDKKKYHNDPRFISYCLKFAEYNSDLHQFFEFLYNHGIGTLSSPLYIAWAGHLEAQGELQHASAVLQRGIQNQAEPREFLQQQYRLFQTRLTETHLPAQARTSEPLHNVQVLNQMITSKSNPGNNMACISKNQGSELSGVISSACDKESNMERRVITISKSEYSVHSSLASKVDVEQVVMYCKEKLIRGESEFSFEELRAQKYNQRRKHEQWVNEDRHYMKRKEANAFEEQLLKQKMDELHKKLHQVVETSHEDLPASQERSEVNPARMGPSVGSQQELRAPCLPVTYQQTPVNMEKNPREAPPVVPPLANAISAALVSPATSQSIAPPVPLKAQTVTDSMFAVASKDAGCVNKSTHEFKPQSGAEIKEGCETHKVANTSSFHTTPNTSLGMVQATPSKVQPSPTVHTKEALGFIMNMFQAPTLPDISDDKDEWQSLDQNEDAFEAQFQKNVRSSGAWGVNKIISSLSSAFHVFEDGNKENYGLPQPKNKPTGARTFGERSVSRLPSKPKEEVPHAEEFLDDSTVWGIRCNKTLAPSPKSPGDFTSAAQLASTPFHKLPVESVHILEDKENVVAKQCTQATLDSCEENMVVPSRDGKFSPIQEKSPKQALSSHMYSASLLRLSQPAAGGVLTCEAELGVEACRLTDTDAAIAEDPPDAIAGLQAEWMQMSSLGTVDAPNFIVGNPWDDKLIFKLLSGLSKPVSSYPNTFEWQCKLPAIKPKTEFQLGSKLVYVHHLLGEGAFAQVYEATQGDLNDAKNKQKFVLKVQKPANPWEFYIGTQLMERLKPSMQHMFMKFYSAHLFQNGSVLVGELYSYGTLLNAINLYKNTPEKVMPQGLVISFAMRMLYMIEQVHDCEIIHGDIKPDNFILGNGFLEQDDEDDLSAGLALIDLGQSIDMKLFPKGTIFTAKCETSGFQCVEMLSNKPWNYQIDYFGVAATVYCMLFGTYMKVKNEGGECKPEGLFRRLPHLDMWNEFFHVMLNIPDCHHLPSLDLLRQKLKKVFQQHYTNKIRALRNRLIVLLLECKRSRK
T6 sequence (Q5BJF2 whole entry): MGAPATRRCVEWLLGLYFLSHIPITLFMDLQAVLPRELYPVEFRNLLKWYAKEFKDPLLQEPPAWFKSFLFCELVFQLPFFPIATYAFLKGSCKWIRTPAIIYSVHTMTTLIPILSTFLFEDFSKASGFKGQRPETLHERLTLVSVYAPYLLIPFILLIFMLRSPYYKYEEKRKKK
T4 sequence (Q99720 whole entry): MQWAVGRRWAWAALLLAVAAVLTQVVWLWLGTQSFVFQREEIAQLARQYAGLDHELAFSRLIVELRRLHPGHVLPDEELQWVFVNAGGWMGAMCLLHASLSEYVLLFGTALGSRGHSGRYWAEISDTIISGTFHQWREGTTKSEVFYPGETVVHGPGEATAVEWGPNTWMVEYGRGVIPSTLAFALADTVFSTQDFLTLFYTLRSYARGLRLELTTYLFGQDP
Sequence of Sodium-dependent serotonin transporter (Homo sapiens) (P31645 whole entry, looked up): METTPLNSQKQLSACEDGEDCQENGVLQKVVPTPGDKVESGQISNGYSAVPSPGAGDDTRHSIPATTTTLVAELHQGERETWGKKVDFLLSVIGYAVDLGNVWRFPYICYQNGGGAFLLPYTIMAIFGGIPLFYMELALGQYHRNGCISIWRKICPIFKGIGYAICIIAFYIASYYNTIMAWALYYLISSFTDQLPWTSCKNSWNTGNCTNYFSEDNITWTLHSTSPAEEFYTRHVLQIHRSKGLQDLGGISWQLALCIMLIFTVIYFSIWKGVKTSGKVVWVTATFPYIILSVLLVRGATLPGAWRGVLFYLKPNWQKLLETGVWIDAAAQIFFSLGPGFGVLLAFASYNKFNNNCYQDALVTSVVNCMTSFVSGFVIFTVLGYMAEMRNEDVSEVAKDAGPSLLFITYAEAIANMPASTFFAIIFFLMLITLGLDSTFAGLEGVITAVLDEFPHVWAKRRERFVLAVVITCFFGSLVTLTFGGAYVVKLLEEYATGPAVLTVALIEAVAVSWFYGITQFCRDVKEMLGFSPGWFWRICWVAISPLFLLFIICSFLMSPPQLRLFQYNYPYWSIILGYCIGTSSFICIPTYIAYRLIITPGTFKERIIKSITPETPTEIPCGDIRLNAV
Sequence of Muscarinic acetylcholine receptor M4 (Homo sapiens) (P08173 whole entry): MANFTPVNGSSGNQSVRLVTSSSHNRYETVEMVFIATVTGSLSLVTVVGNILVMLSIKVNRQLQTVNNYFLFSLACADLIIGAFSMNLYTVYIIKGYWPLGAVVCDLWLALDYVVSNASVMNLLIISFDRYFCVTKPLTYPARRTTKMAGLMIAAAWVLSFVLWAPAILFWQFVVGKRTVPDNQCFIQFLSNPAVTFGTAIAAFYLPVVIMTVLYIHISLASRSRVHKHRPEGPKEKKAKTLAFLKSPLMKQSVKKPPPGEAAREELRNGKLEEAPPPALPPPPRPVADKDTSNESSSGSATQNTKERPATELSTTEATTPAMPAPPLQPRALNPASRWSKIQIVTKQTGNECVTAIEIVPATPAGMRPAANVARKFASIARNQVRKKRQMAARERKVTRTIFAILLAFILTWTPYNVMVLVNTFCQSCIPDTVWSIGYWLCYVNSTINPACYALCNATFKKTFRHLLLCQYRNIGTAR

IC50 [1]: 1700 nM (not active)
inhibition [2]: 33.8%
inhibition [3]: 12.9%
inhibition [4]: 12.9%
inhibition [5]: 17.5%
inhibition [6]: 12.3%
inhibition [7]: 3.77%
inhibition [8]: 20.3%
inhibition [9]: -9.55%
inhibition [10]: 28.7%
Ki ([11]; read-out: Ki): 1630 nM
Ki ([11]; read-out: pKi (converted)): 1620 nM
inhibition [12]: 33.6%
inhibition [13]: -3.97%
inhibition [14]: -3.83%
inhibition [15]: -9.7%
inhibition [16]: 26.8%
inhibition [17]: 1.17%
Ki [18]: 2740 nM
inhibition [19]: 6.5%
inhibition [20]: 52.2%
inhibition [21]: 27.8%
inhibition [22]: 55.1%
IC50 [23]: > 20000 nM (not active)
Ki [24]: 655 nM
inhibition [25]: -4.46%
inhibition [26]: 28.9%
inhibition [27]: 20%
inhibition [28]: 9.26%
inhibition [29]: -3.39%
inhibition [30]: 82.8%
inhibition [31]: 10.9%
Ki [32]: > 10000 nM
pKi [32]: < 5
Ki [33]: 8970 nM
inhibition [34]: 69.2%
inhibition [35]: 41.3%
inhibition [36]: 58.7%
inhibition [37]: -3.71%
inhibition [38]: 13.9%
inhibition [39]: 21.8%
Ki [40]: 1340 nM
inhibition [41]: 27.6%
inhibition [42]: 24.9%
inhibition [43]: -6.1%
SMILES: COc1ccccc1Nc1nc(-c2nn(Cc3c(F)cc(OCCCO)cc3F)c3ccccc23)ncc1OC
